# Patent US8648063B2, “Potentiation of cancer chemotherapy by 7-(2, 5-dihydro-4-imidazo [1, 2-a] pyridine-3-yl-2,5-dioxo-1H-pyrrol-3-yl)-9-fluoro-1,2,3,4 tetrahydro -2-(1-piperidinyl-carbonyl)-pyrrolo [3,2,1-jk] [1,4] benzodiazepine” (Eli Lilly and Company, priority 2007, dated 2014)
# Legend:
# [1] = tested on: HCT-116; assay: Caspase-3/7 apoptosis assay (Apo-ONE) in HCT-116; type: cell-based, human; settings: 48 hrs
# Excerpt: (§1) Apoptosis or programmed cell death is characterized by a set of biochemical reactions, one of which is the induction of caspases. Activated caspases are proteases that participate in a cascade of cleavage events that disable key enzymes responsible for cell homeostasis and repair. Caspases 3 and 7 play key effector roles in apoptosis and can be detected and measured by a fluorescent biochemical assay. The increase of Caspase-3/7 activity in cells is directly correlated to apoptotic activity. (D. W. Nicholson, et al., Nature, 376, 37-43 (1995)) The Promega Apo-ONE Homogeneous Caspase-3/7 Assay Kit was used (Catalog #G7791). The assay buffer consists of 30 mM HEPES (N-(2-hydroxyethyl)piperazine-M-(2-ethanesulfonic acid) pH 7.4, 150 mM NaCl, 50 mM KCl, 10 mM MgCl2, 0.4 mM EGTA (ethylene glycol tetraacetic acid), 0.5% Nonidet P40 (octylphenolpoly(ethyleneglycol ether)), 0.1% CHAPS (3-[(3-Cholamidopropyl)dimeth-ylammonio]-1-propanesulfonate hydrate and 10% sucrose, which lyses/permeabilizes cultured cells and a caspase 3/7 substrate, Z-DEVD (Z-Asp(OMe)-Glu(OMe)-Val-Asp(OMe)), coupled to a profluorescent rhodamine 110. When the buffer-substrate mixture is added to a test sample, the cleavage and subsequent removal of the DEVD peptides by caspase 3/7 activity results in intense fluorescence of the rhodamine 110 leaving group, which is detected by excitation at 499 nm. The amount of fluorescent product is proportional to the amount of caspase 3/7 cleavage activity in the sample.
# (§2) To measure the apoptotic effect of test compounds, tumor cells are plated at 1×10^4 cells per well in 96 well plates and incubated overnight at 37° C., with 5% CO2. Tumor cells are treated with test compound at desired concentrations in triplicate, including untreated/negative control wells. The assay plates are re-incubated for 48 hrs. At the end of the incubation period, a mixture of the assay buffer and substrate is added to each sample well. The fluorescence in each well is measured at an excitation wavelength of 485+/−20 nm and an emission wavelength of 530+/−25 nm. The % increase of caspase activity in treated cells is calculated relative to untreated controls.
# (§3) The data in Tables 1-12 are expressed as % increase of caspase activity relative to untreated controls unless otherwise noted.
# [2] = tested on: Colo-205; assay: Caspase-3/7 apoptosis assay (Apo-ONE) in Colo-205; type: cell-based, human; settings: 48 hrs
# Excerpt: as §1, §2, §3
# [3] = tested on: A2780; assay: Caspase-3/7 apoptosis assay (Apo-ONE) in A2780; type: cell-based, human
# Excerpt: as §1
# as §2, with “The assay plates are re-incubated for 48 hrs.” left out
# as §3
# [4] = tested on: AGS; assay: Caspase-3/7 apoptosis assay (Apo-ONE) in AGS; type: cell-based; settings: Cmpd I 900 nM
# Excerpt: as §1
# as §2, with “The assay plates are re-incubated for 48 hrs.” left out
# as §3
# [5] = tested on: MKN 45; assay: Caspase-3/7 apoptosis assay (Apo-ONE) in MKN 45; type: cell-based
# Excerpt: as §1
# as §2, with “The assay plates are re-incubated for 48 hrs.” left out
# as §3
# [6] = tested on: A549; assay: Caspase-3/7 apoptosis assay (Apo-ONE) in A549; type: cell-based; settings: Compound I 300 nM, 48 hrs
# Excerpt: as §1, §2, §3
# [7] = tested on: NCI-H460; assay: Caspase-3/7 apoptosis assay (Apo-ONE) in NCI-H460; type: cell-based, human; settings: 48 hrs
# Excerpt: as §1, §2, §3
# [8] = tested on: Calu-6; assay: Caspase-3/7 apoptosis assay (Apo-ONE) in Calu-6; type: cell-based; settings: 48 hrs
# Excerpt: as §1, §2, §3
# [9] = tested on: SKOV3; assay: Caspase-3/7 apoptosis assay (Apo-ONE) in SKOV3; type: cell-based; settings: Cmpd I 300 nM, Doxorubicin 1 μM, 48 hrs
# Excerpt: as §1, with “The amount of fluorescent product is proportional to the amount of caspase 3/7 cleavage activity in the sample.” left out
# [10] = tested on: KATO III; assay: Caspase-3/7 apoptosis assay (Apo-ONE) in KATO III; type: cell-based; settings: Cmpd I 600 nM, Cisplatin 10 μM, 48 hrs
# Excerpt: as §1, with “The amount of fluorescent product is proportional to the amount of caspase 3/7 cleavage activity in the sample.” left out
# [11] = tested on: A2780 human ovarian carcinoma xenografts; assay: Tumor growth delay, A2780 xenografts; type: in vivo, CD-1 nu/nu mice; settings: cisplatin 5 mg/kg IP, Compound I 5 mg/kg IV, alone or combined, 3 cycles separated by 7 days, time to 1000 mm^3 vs control
# Method: (§4) Cultured cells are implanted subcutaneously in the rear flank of female CD-1 nu/nu strain mice which have been acclimated for one week in the animal facility after receipt from the vendor. Mice are randomized into groups of 7 or 8 mice per group and treatment begun when the mean tumor volume reaches ˜100 mm^3 Compound I is dosed IV and the chemotherapeutic agent is given IP. When the agents are given in combination, the chemotherapeutic agent is dosed 60 minutes prior to Compound I. The tumors are measured 2 times per week by electronic calipers to plot growth curves. Tumor growth delay is the increase in median time it takes for a tumor to reach 1000 mm^3 in volume when compared to a control group. Animals are also monitored for fluctuations in body weight and survival.
# [12] = tested on: HCT-116 human colorectal carcinoma xenografts; assay: Tumor growth delay, HCT-116 xenografts; type: in vivo, CD-1 nu/nu mice; settings: cisplatin 10 mg/kg IP, Compound I 5 mg/kg IV, alone or combined, 3 cycles separated by 7 days, time to 1000 mm^3 vs control
# Method: as §4
# [13] = tested on: Colo-205 human colorectal carcinoma xenografts; assay: Tumor growth delay, Colo-205 xenografts; type: in vivo, CD-1 nu/nu mice; settings: cisplatin 5 mg/kg IP, Compound I 5 mg/kg IV, alone or combined, 3 cycles separated by 7 days, time to 1000 mm^3 vs control
# Method: as §4
# [14] = tested on: NCI-H460 human non-small cell lung cancer xenografts; assay: Tumor growth delay, NCI-H460 xenografts; type: in vivo, CD-1 nu/nu mice; settings: Compound I 5 mg/kg IV, time to 1000 mm^3 vs control
# Method: as §4
# [15] = Compound I 330 nM, CPT-11 20 nM
# [16] = Compound I 330 nM, CPT-11 20 nM, 48 hrs
# [17] = Cmpd I 300 nM, 5-FU 5 μM, plates incubated for 72 hours
# [18] = Cmpd I 60 nM, Gemcitabine 30 nM
# [19] = Compound I 30 nM, pemetrexed 60 nM
# [20] = Compound I 300 nM, cisplatin 5 μM
# [21] = Compound I 110 nM, cisplatin 5 μM
# [22] = Cmpd I 300 nM, Carboplatin 5 μM, plates incubated for 72 hours
# [23] = Compound I 30 nM, pemetrexed 60 nM, 48 hrs
# [24] = Compound I 60 nM, cisplatin 5 μM, 48 hrs
# [25] = NCI H-460, Cmpd I 300 nM, Etoposide 1 μM
# [26] = NCI H-460, Cmpd I 300 nM, Gemcitabine 50 nM
# [27] = NCI H-460, Cmpd I 300 nM, Pemetrexed 500 nM
# [28] = NCI-H460, Compound I 100 nM, carboplatin 10 μM
# [29] = NCI-H460, Compound I 300 nM, cisplatin 1 μM
# [30] = Calu 6, Cmpd I 33 nM, Cisplatin 2 μM
# [31] = Calu-6, Compound I 30 nM, pemetrexed 60 nM
# [32] = Cisplatin 5 μM, plates incubated for 72 hours
# [33] = Cmpd I 600 nM, Cisplatin 10 μM, 48 hrs
# [34] = Carboplatin 50 mg/kg IP, alone or combined, every 14 days × 3 cycles
smiles,measurement,setting,value
"CCc1c2c(nc3ccc(OC(=O)N4CCC(N5CCCCC5)CC4)cc13)-c1cc3c(c(=O)n1C2)COC(=O)[C@]3(O)CC [CPT-11, irinotecan, reference compound]",% increase of caspase activity relative to untreated controls,[1]; [15],50%
same,% increase of caspase activity relative to untreated controls,"[2]; Compound I 33 nM, CPT-11 20 nM",38%
same,% increase of caspase activity relative to untreated controls,[3]; [16],153%
"O=c1[nH]cc(F)c(=O)[nH]1 [Compound 5-FU, 5-fluorouracil, reference compound]",% increase of caspase activity relative to untreated controls,"[1]; Cmpd I 12 nM, 5-FU 5 μM",55%
same,% increase of caspase activity relative to untreated controls,"[4]; 5-FU 3 μM, 48 hrs",133%
same,% increase of caspase activity relative to untreated controls,[5]; [17],415%
"O=C1NC(=O)C(c2cnc3ccccn23)=C1c1cn2c3c(cc(F)cc13)CN(C(=O)N1CCCCC1)CC2 [Compound I, 7-(2,5-dihydro-4-imidazo[1,2-a]pyridine-3-yl-2,5-dioxo-1H-pyrrol-3-yl)-9-fluoro-1,2,3,4-tetrahydro-2-(1-piperidinyl-carbonyl)-pyrrolo[3,2,1-jk][1,4]benzodiazepine]",% increase of caspase activity relative to untreated controls,"[1]; Cmpd I 12 nM, 5-FU 5 μM",47%
same,% increase of caspase activity relative to untreated controls,[1]; [18],0%
same,% increase of caspase activity relative to untreated controls,[1]; [19],0%
same,% increase of caspase activity relative to untreated controls,[1]; [20],16%
same,% increase of caspase activity relative to untreated controls,[1]; [15],53%
same,% increase of caspase activity relative to untreated controls,"[2]; Compound I 33 nM, CPT-11 20 nM",45%
same,% increase of caspase activity relative to untreated controls,[2]; [21],12%
same,% increase of caspase activity relative to untreated controls,[3]; [22],55%
same,% increase of caspase activity relative to untreated controls,[3]; [23],10%
same,% increase of caspase activity relative to untreated controls,[3]; [24],0%
same,% increase of caspase activity relative to untreated controls,[3]; [16],1%
same,% increase of caspase activity relative to untreated controls,[6]; carboplatin 10 μM,52%
same,% increase of caspase activity relative to untreated controls,[6]; cisplatin 1 μM,80%
same,% increase of caspase activity relative to untreated controls,[7]; [25],222%
same,% increase of caspase activity relative to untreated controls,[7]; [26],186%
same,% increase of caspase activity relative to untreated controls,[7]; [27],38%
same,% increase of caspase activity relative to untreated controls,[7]; [28],122%
same,% increase of caspase activity relative to untreated controls,[7]; [29],99%
same,% increase of caspase activity relative to untreated controls,[8]; [30],154%
same,% increase of caspase activity relative to untreated controls,[8]; [31],139%
same,% increase of caspase activity relative to untreated controls,[9],0%
same,% increase of caspase activity relative to untreated controls,"[4]; 5-FU 3 μM, 48 hrs",0%
same,% increase of caspase activity relative to untreated controls,[4]; [32],0%
same,% increase of caspase activity relative to untreated controls,[10],48%
same,% increase of caspase activity relative to untreated controls,[5]; [17],105%
same,% increase of caspase activity relative to untreated controls,[5]; [33],162%
same,Tumor Growth Delay Mean ± Standard Error,[11],-0.3 ± 1.4 days
same,Tumor Growth Delay Mean ± Standard Error,[12],2 ± 2.2 days
same,Tumor Growth Delay Mean ± Standard Error,[13],10.9 ± 2.2 days
same,Tumor Growth Delay Mean ± Standard Error,[14]; [34],3 ± 1.4 days
same,Tumor Growth Delay Mean ± Standard Error,"[14]; carboplatin 10 mg/kg IP, pemetrexed 300 mg/kg IP, every 14 days for 3 cycles",1.4 ± 3.8 days
"COc1cccc2c1C(=O)c1c(O)c3c(c(O)c1C2=O)C[C@@](O)(C(=O)CO)C[C@@H]3O[C@H]1C[C@H](N)[C@H](O)[C@H](C)O1 [Doxorubicin, doxorubicin, reference compound]",% increase of caspase activity relative to untreated controls,[9],184%
"COc1cc([C@@H]2c3cc4c(cc3[C@@H](O[C@@H]3O[C@@H]5CO[C@@H](C)O[C@H]5[C@H](O)[C@H]3O)[C@H]3COC(=O)[C@H]23)OCO4)cc(OC)c1O [Etoposide, etoposide, reference compound]",% increase of caspase activity relative to untreated controls,[7]; [25],251%
"Nc1ccn([C@@H]2O[C@H](CO)[C@@H](O)C2(F)F)c(=O)n1 [Gemcitabine, reference compound]",% increase of caspase activity relative to untreated controls,[1]; [18],324%
same,% increase of caspase activity relative to untreated controls,[7]; [26],1187%
"Nc1nc2[nH]cc(CCc3ccc(C(=O)N[C@@H](CCC(=O)O)C(=O)O)cc3)c2c(=O)[nH]1 [Pemetrexed, pemetrexed, reference compound]",% increase of caspase activity relative to untreated controls,[1]; [19],23%
same,% increase of caspase activity relative to untreated controls,[3]; [23],0%
same,% increase of caspase activity relative to untreated controls,[7]; [27],185%
same,% increase of caspase activity relative to untreated controls,[8]; [31],24%
"N.N.O=C([O-])C1(C(=O)[O-])CCC1.[Pt+2] [carboplatin, reference compound]",% increase of caspase activity relative to untreated controls,[3]; [22],78%
same,% increase of caspase activity relative to untreated controls,[6]; carboplatin 10 μM,14%
same,% increase of caspase activity relative to untreated controls,[7]; [28],16%
same,Tumor Growth Delay Mean ± Standard Error,[14]; [34],2 ± 2.9 days
"N.N.[Cl][Pt][Cl] [cisplatin, reference compound]",% increase of caspase activity relative to untreated controls,[1]; [20],36%
same,% increase of caspase activity relative to untreated controls,[2]; [21],8%
same,% increase of caspase activity relative to untreated controls,[3]; [24],1.5%
same,% increase of caspase activity relative to untreated controls,[6]; cisplatin 1 μM,4%
same,% increase of caspase activity relative to untreated controls,[7]; [29],47%
same,% increase of caspase activity relative to untreated controls,[8]; [30],97%
same,% increase of caspase activity relative to untreated controls,[4]; [32],147%
same,% increase of caspase activity relative to untreated controls,[10],389%
same,% increase of caspase activity relative to untreated controls,[5]; [33],359%
same,Tumor Growth Delay Mean ± Standard Error,[11],5 ± 1.6 days
same,Tumor Growth Delay Mean ± Standard Error,[12],23 ± 10.3 days
same,Tumor Growth Delay Mean ± Standard Error,[13],18 ± 3.5 days
